Experimental data published in PubChem BioAssay AID248 (DTP/NCI, 2004).
Several values for one entry are separate records, joined by “and”; a condition that tells them apart may be missing. Equal entries are not always repeated. Inconclusive results and toxic doses are left out. No stated cut-off is given here; in the data, active means T/C of 150% or more; inactive means T/C below 125%. Square brackets hold non-standard residues; d marks the D form. Peptide text beside a SMILES is read from it. ξ: configuration not given here. ξF = NC(Cc1ccccc1)C(=O)O

System: L1210 leukemia ip in BDF1 mice, survival T/C
Assay: NCI In Vivo Anticancer Drug Screen. Data for tumor model L1210 Leukemia (intraperitoneal) in B6D2F1 (BDF1) mice
Conditions: endpoint: mean survival time, higher = longer survival
In short: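 Mice bearing the transplanted tumor received compound or vehicle. Survival of the treated group was divided by that of the vehicle-treated control group to give the ratio.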

[1] = dose: 100.0 mg/kg/injection, schedule: Q01DX001 (ip), vehicle: saline
[2] = dose: 200.0 mg/kg/injection, schedule: Q01DX001 (ip), vehicle: saline
[3] = dose: 400.0 mg/kg/injection, schedule: Q01DX001 (ip), vehicle: saline
[4] = dose: 100.0 mg/kg/injection, schedule: Q04DX003 (ip), vehicle: saline
[5] = dose: 200.0 mg/kg/injection, schedule: Q04DX003 (ip), vehicle: saline
[6] = dose: 400.0 mg/kg/injection, schedule: Q04DX003 (ip), vehicle: saline
[7] = dose: 100.0 mg/kg/injection, schedule: Q01DX009 (ip), vehicle: saline
[8] = dose: 100.0 mg/kg/injection, schedule: Q01DX009 (ip), vehicle: saline with Tween-80
[9] = dose: 100.0 mg/kg/injection, schedule: Q04DX002 (ip), vehicle: saline with Tween-80
[10] = dose: 200.0 mg/kg/injection, schedule: Q01DX009 (ip), vehicle: saline with Tween-80
[11] = dose: 200.0 mg/kg/injection, schedule: Q04DX002 (ip), vehicle: saline with Tween-80
[12] = dose: 400.0 mg/kg/injection, schedule: Q04DX002 (ip), vehicle: saline with Tween-80
[13] = dose: 100.0 mg/kg/injection, schedule: Q04DX002 (ip), vehicle: Klucel (hydroxypropylcellulose) (HPC)
[14] = dose: 200.0 mg/kg/injection, schedule: Q04DX002 (ip), vehicle: Klucel (hydroxypropylcellulose) (HPC)
[15] = dose: 400.0 mg/kg/injection, schedule: Q04DX002 (ip), vehicle: Klucel (hydroxypropylcellulose) (HPC)
[16] = dose: 100.0 mg/kg/injection, schedule: Q04DX003 (ip), vehicle: saline with Tween-80
[17] = dose: 200.0 mg/kg/injection, schedule: Q04DX003 (ip), vehicle: saline with Tween-80
[18] = dose: 50.0 mg/kg/injection, schedule: Q01DX009 (ip), vehicle: saline with Tween-80
[19] = dose: 100.0 mg/kg/injection, schedule: Q04DX003 (ip), vehicle: Klucel (hydroxypropylcellulose) (HPC)
[20] = dose: 200.0 mg/kg/injection, schedule: Q04DX003 (ip), vehicle: Klucel (hydroxypropylcellulose) (HPC)
[21] = dose: 400.0 mg/kg/injection, schedule: Q04DX003 (ip), vehicle: Klucel (hydroxypropylcellulose) (HPC)

Measured: T/C

COc1ccc(-n2c(=O)c(N=Nc3ccccc3C)c(O)n(-c3ccccc3OC)c2=S)cc1
inactive: dose: 75.0 mg/kg/injection, schedule: Q01DX001 (ip), vehicle: Klucel (hydroxypropylcellulose) (HPC) 97 % of control | dose: 150.0 mg/kg/injection, schedule: Q01DX001 (ip), vehicle: Klucel (hydroxypropylcellulose) (HPC) 92 % of control

CCOC(=O)C1=NC=NC1=[N+]=[N-]
inactive: dose: 5.0 mg/kg/injection, schedule: Q01DX001 (ip), vehicle: saline 92 % of control | dose: 10.0 mg/kg/injection, schedule: Q01DX001 (ip), vehicle: saline 94 % of control | dose: 20.0 mg/kg/injection, schedule: Q01DX001 (ip), vehicle: saline 100 % of control

O=[N+]([O-])c1sc2ccccc2c1Br
inactive: dose: 5.0 mg/kg/injection, schedule: Q04DX002 (ip), vehicle: Klucel (hydroxypropylcellulose) (HPC) 101 % of control | dose: 10.0 mg/kg/injection, schedule: Q04DX002 (ip), vehicle: Klucel (hydroxypropylcellulose) (HPC) 97 % of control | dose: 20.0 mg/kg/injection, schedule: Q04DX002 (ip), vehicle: Klucel (hydroxypropylcellulose) (HPC) 97 % of control

CCOC(=O)c1c(Cl)nc2ccccc2c1Cl
inactive: [1] 92 % of control | [2] 97 % of control | [3] 94 % of control

COc1ccc(Cl)cc1NC(=O)Nc1cccc(C(C)=O)c1
inactive: dose: 100.0 mg/kg/injection, schedule: Q01DX009 (ip), vehicle: Klucel (hydroxypropylcellulose) (HPC) 102 % of control | dose: 200.0 mg/kg/injection, schedule: Q01DX009 (ip), vehicle: Klucel (hydroxypropylcellulose) (HPC) 93 % of control | dose: 400.0 mg/kg/injection, schedule: Q01DX009 (ip), vehicle: Klucel (hydroxypropylcellulose) (HPC) 90 % of control

O=C(CBr)N=c1cc(-c2ccc(Cl)cc2)ss1
inactive: [4] 95 % of control | [5] 91 % of control | [6] 101 % of control

CC(/C=C/C(O)=C1/C(=O)CNC1=O)=C\[C@@H](C)[C@H]1O[C@@]2(C)O[C@H](C(=O)[C@@H]3O[C@@]32C)[C@@H]1C
inactive: dose: 25.0 mg/kg/injection, schedule: Q01DX009 (ip), vehicle: saline 94 % of control | dose: 50.0 mg/kg/injection, schedule: Q01DX009 (ip), vehicle: saline 100 % of control | dose: 100.0 mg/kg/injection, schedule: Q01DX001 (ip), vehicle: acetone 89 % of control | [7] 93 % of control | dose: 100.0 mg/kg/injection, schedule: Q04DX003 (ip), vehicle: acetone 87 % of control | dose: 200.0 mg/kg/injection, schedule: Q01DX001 (ip), vehicle: acetone 89 % of control | dose: 400.0 mg/kg/injection, schedule: Q01DX001 (ip), vehicle: acetone 96 % of control

O=Cc1cccs1
inactive: [8] 104 % of control | [9] 93 % of control | [10] 107 % of control | [11] 100 % of control | dose: 400.0 mg/kg/injection, schedule: Q01DX009 (ip), vehicle: saline with Tween-80 118 % of control | [12] 96 % of control

CCC(/C=C1\[Se]c2ccc(C)cc2N1CC)=C\c1[se]c2ccc(C)cc2[n+]1CC
inactive: dose: 2.0 mg/kg/injection, schedule: Q01DX001 (ip), vehicle: other 103 % of control | dose: 4.0 mg/kg/injection, schedule: Q01DX001 (ip), vehicle: other 101 % of control

CCOC(=O)C1CC(C)c2[nH]c3ccccc3c21 (configuration not stated)
inactive: [13] 110 % of control | [14] 107 % of control | [15] 89 % of control

O=C1CNC(=O)N1c1cccc(Cl)c1
inactive: [16] 100 % of control | [17] 100 % of control | dose: 400.0 mg/kg/injection, schedule: Q04DX003 (ip), vehicle: saline with Tween-80 102 % of control

CC(=O)OCC1OC(Oc2ncc(C)c(=O)[nH]2)C(Nc2ccc([N+](=O)[O-])cc2[N+](=O)[O-])C(OC(C)=O)C1OC(C)=O (configuration not stated)
inactive: dose: 50.0 mg/kg/injection, schedule: Q01DX001 (ip), vehicle: carboxymethylcellulose (CMC) 100 % of control | dose: 100.0 mg/kg/injection, schedule: Q01DX001 (ip), vehicle: carboxymethylcellulose (CMC) 97 % of control | dose: 200.0 mg/kg/injection, schedule: Q01DX001 (ip), vehicle: carboxymethylcellulose (CMC) 103 % of control | dose: 400.0 mg/kg/injection, schedule: Q01DX001 (ip), vehicle: carboxymethylcellulose (CMC) 92 % of control

COc1cc(C(=O)N2CC2)cc(OC)c1OC
inactive: dose: 25.0 mg/kg/injection, schedule: Q01DX009 (ip), vehicle: water 96 % of control | dose: 50.0 mg/kg/injection, schedule: Q01DX009 (ip), vehicle: water 96 % of control

CCCCN1C(=O)N(CCCC)C(=O)C(Br)(Br)C1=O
inactive: [18] 97 % of control | [8] 105 % of control | [10] 97 % of control

O=C(O)/C(=C(/Cc1ccccc1)C(=O)c1ccccc1)c1ccccc1
inactive: [18] 98 % of control | [8] 88 % of control | [10] 91 % of control

O=NN1CCC1
inactive: [1] 97 % of control | [2] 93 % of control | [3] 93 % of control

COc1cc(/C=N\NC(=O)OC(C)(C)C)cc(OC)c1OC
inactive: [18] 95 % of control | [8] 97 % of control | [16] 87 % of control | [10] 97 % of control | [17] 91 % of control

Cc1[nH]c(=O)[nH]c(=O)c1S(=O)(=O)O
inactive: [19] 98 % of control | [20] 93 % of control | [21] 98 % of control

O=C(NSNc1ccccc1)c1ccccc1
inactive: [13] 110 % of control | [14] 103 % of control | [15] 100 % of control

NC(=S)NC(=S)Nc1ccccc1
inactive: [19] 103 % of control | [20] 110 % of control | [21] 106 % of control

CCOC(=O)/C(C#N)=C(\CCc1ccccc1)CC(C)C
inactive: [9] 101 % of control | [11] 101 % of control | [12] 104 % of control

NC(Cc1ccccc1)C(=O)NCC(=O)O (configuration not stated) (H-[ξF]-Gly-OH)
inactive: [7] 105 % of control | [4] 98 % of control | dose: 200.0 mg/kg/injection, schedule: Q01DX009 (ip), vehicle: saline 105 % of control | [5] 97 % of control | dose: 400.0 mg/kg/injection, schedule: Q01DX009 (ip), vehicle: saline 102 % of control | [6] 97 % of control

O=C(/C(=C\c1ccccc1)CBr)c1ccc(Br)cc1
inactive: dose: 3.12 mg/kg/injection, schedule: Q01DX009 (ip), vehicle: saline 100 % of control | dose: 6.25 mg/kg/injection, schedule: Q01DX009 (ip), vehicle: saline 100 % of control | dose: 12.5 mg/kg/injection, schedule: Q01DX009 (ip), vehicle: saline 94 % of control and 89 % of control | dose: 12.5 mg/kg/injection, schedule: Q04DX003 (ip), vehicle: saline with Tween-80 96 % of control | dose: 25.0 mg/kg/injection, schedule: Q04DX003 (ip), vehicle: saline with Tween-80 93 % of control | dose: 50.0 mg/kg/injection, schedule: Q04DX003 (ip), vehicle: saline with Tween-80 94 % of control
